Results as given in patent US7659270B2, “Hepatitis C virus inhibitors” (Bristol-Myers Squibb Company, priority 2006, dated 2010).

Test system: HCV 1b-377-neo replicon cells
Test: HCV replicon assay (HCV 1b-377-neo replicon cells)
Format: cell-based, Hepatitis C virus genotype 1b
Parameters: EC50 range against HCV 1b (Range): scale not given here
Conditions: for EC50: Hepatitis C virus, read-out: EC50 range against HCV 1b (Range)
Procedure: An HCV Replion assay was utilized in the present disclosure, and was prepared, conducted and validated as described in commonly owned PCT/US2006/022197 and in O'Boyle et. al. Antimicrob Agents Chemother. April 2005;49(4): 1346-53.
HCV 1b-377-neo replicon cells were used to test the currently described compound series as well as cells resistant to compound A due to a Y2065H mutation in NS5A (described in application PCT/US2006/022197). The compounds tested were determined to have more than 10-fold less inhibitory activity on cells resistant to compound A than wild-type cells indicating a related mechanism of action between the two compound series. Thus, the compounds of the present disclosure can be effective to inhibit the function of the HCV NS5A protein and are understood to be as effective in combinations as previously described in application PCT/US2006/022197 and commonly owned WO/04014852. Further, the compounds of the present disclosure can be effective against the HCV 1b genotype. It should also be understood that the compounds of the present disclosure can inhibit multiple genotypes of HCV. […] In one embodiment compounds of the present disclosure are active against the 1a, 1b, 2a, 2b, 3a, 4a, and 5a genotypes.

`O=C([C@@H](c1ccccc1)N1CCCCC1)N1CCC[C@H]1c1ncc(-c2ccc(-c3ncc(-c4cnc([C@@H]5CCCN5C(=O)[C@@H](c5ccccc5)N5CCCCC5)[nH]4)cn3)cc2)[nH]1` [Example 152j-5, 5-(2-((2S)-1-((2R)-2-phenyl-2-(1-piperidinyl)acetyl)-2-pyrrolidinyl)-1H-imidazol-5-yl)-2-(4-(2-((2S)-1-((2R)-2-phenyl-2-(1-piperidinyl)acetyl)-2-pyrrolidinyl)-1H-imidazol-4-yl)phenyl)pyrimidine] gave an EC50 of 0.01 to 0.999 nM.

Work on `COC(=O)N[C@@H](C(=O)N1CCC[C@H]1c1nc(-c2cnc(-c3ccc(-c4cnc([C@@H]5CCCN5C(=O)[C@H](NC(=O)OC)c5ccccc5)[nH]4)c(F)c3)nc2)c[nH]1)c1ccccc1` [Example D69, methyl ((1R)-2-((2S)-2-(5-(2-(3-fluoro-4-(2-((2S)-1-((2R)-2-((methoxy-carbonyl)a-mino)-2-phenyl-acetyl)-2-pyrroli-dinyl)-1H-imidazol-5-yl)phenyl)-5-pyrimi-dinyl)-1H-imida-zol-2-yl)-1-pyrrolidinyl)-2-oxo-1-phenyl-eth-yl)carbamate] yielded an EC50 of 0.01 to 0.999 nM.

Work on `CN(C)[C@@H](C(=O)N1CCC[C@H]1c1ncc(-c2ccc(-c3cnc(-c4cnc([C@@H]5CCCN5C(=O)[C@@H](c5ccccc5)N(C)C)[nH]4)cn3)cc2)[nH]1)c1ccccc1` [Example 152j-7, (1R)-2-((2S)-2-(5-(5-(4-(2-((2S)-1-((2R)-2-(dimethylamino)-2-phenylacetyl)-2-pyrrolidinyl)-1H-imidazol-5-yl)phenyl)-2-pyrazinyl)-1H-imidazol-2-yl)-1-pyrrolidinyl)-N,N-dimethyl-2-oxo-1-phenylethanamine] yielded an EC50 of 1 to 99 nM.

For `COC(=O)N[C@@H](C(=O)N1CCC[C@H]1c1ncc(-c2ccc(-c3ncc(-c4cnc([C@@H]5CCCN5C(=O)Cc5cccnc5)[nH]4)cn3)cc2)[nH]1)c1ccccc1` [Example 152j-3, methyl ((1R)-2-oxo-1-phenyl-2-((2S)-2-(5-(4-(5-(2-((2S)-1-(3-pyridinylacetyl)-2-pyrrolidinyl)-1H-imidazol-5-yl)-2-pyrimidinyl)phenyl)-1H-imidazol-2-yl)-1-pyrrolidinyl)ethyl)car-bamate], the EC50 was 0.01 to 0.999 nM.

Molecule `CN(C)[C@@H](C(=O)N1CCC[C@H]1c1ncc(-c2cnc(-c3ncc(-c4cnc([C@@H]5CCCN5C(=O)[C@@H](c5ccccc5)N(C)C)[nH]4)cn3)nc2)[nH]1)c1ccccc1` [Example 153c-3, (1R,1′R)-2,2′-(2,2′-bipyrimi-dine-5,5′-diylbis(1H-imidazole-5,2-diyl (2S)-2,1-pyrrolidine-diyl))bis(N, N-dimeth-yl-2-oxo-1-phenyl-ethanamine)] has an EC50 of 1000 to 10000 nM.

With `COC(=O)N[C@H](C(=O)N1CCC[C@H]1c1ncc(-c2ccc(-c3ccc(-c4cnc([C@@H]5CCCN5C(=O)[C@@H](NC(=O)OC)C(C)C)[nH]4)cc3C(N)=O)cc2)[nH]1)C(C)C` [Example M118, methyl((1S)-1-(((2S)-2-(5-(2′-carbamoyl-4′-(2-((2S)-1-((2S)-2-((methoxycarbonyl)amino)-3-methylbutanoyl)-2-pyrrolidinyl)-1H-imidazol-5-yl)-4-biphenylyl)-1H-imidazol-2-yl)-1-pyrrolidinyl)carbonyl)-2-methylpropyl)carbamate] the “EC50 range against HCV 1b (Range)” value was “>A”.

With `COC(=O)N[C@@H](C(=O)N1CCC[C@H]1c1ncc(-c2ccc(-c3ccc(-c4cnc([C@@H]5CCCN5C(=O)[C@H](NC(=O)OC)c5ccccc5)[nH]4)nn3)cc2)[nH]1)c1ccccc1` [Example 152j-10, methyl ((1R)-2-((2S)-2-(5-(6-(4-(2-((2S)-1-((2R)-2-((methoxycarbonyl)a-mino)-2-phenylacetyl)-2-pyrrolidinyl)-1H-imidazol-5-yl)phenyl)-3-pyridazinyl)-1H-imidazol-2-yl)-1-pyrrolidinyl)-2-oxo-1-phenylethyl) carba-mate] the EC50 was 1 to 99 nM.

Molecule `COC(=O)N[C@@H](C(=O)N1CCC[C@H]1c1ncc(-c2ccc(-c3ccc(-c4cnc([C@@H]5CCCN5C(=O)N5CCOCC5)[nH]4)cn3)cc2)[nH]1)c1ccccc1` [Example 144, methyl((1R)-2-((2S)-2-(5-(4-(5-(2-((2S)-1-(4-morpholinylcarbonyl)-2-pyrrolidinyl)-1H-imidazol-5-yl)-2-pyridinyl)phenyl)-1H-imidazol-2-yl)-1-pyrrolidinyl)-2-oxo-1-phenylethyl)carbamate] has an EC50 of 0.01 to 0.999 nM.

Work on `C[C@@H](c1ncc(-c2ccc(-c3ccc(-c4cnc([C@H](C)N(C)C(=O)[C@@H](c5ccccc5)N5CCCCC5)[nH]4)cc3)cc2)[nH]1)N(C)C(=O)[C@@H](c1ccccc1)N1CCCCC1` [Example 24-18-3, (2R,2′R)-N,N′-(4,4′-biphenyl-diylbis(1H-imidazole-5,2-diyl(1S)-1,1-ethane-diyl))bis(N-meth-yl-2-phenyl-2-(1-piperi-dinyl)acet-amide)] yielded an EC50 of 0.01 to 0.999 nM.

`COC(=O)N[C@@H](C(=O)N(C)[C@@H](C)c1ncc(-c2ccc(-c3ncc(-c4cnc([C@@H]5CCCN5C(=O)[C@H](NC(=O)OC)c5ccccc5)[nH]4)cn3)cc2)[nH]1)c1ccccc1` [Example 152j-21, methyl ((1R)-2-((2S)-2-(5-(2-(4-(2-((1S)-1-(((2R)-2-((methoxycarbonyl)a-mino)-2-phenylacetyl)(methyl)amino)ethyl)-1H-imidazol-5-yl)phenyl)-5-pyrimidinyl)-1H-imidazol-2-yl)-1-pyrrolidinyl)-2-oxo-1-phenylethyl)carbamate] showed an EC50 of 0.01 to 0.999 nM.

For `COC(=O)N[C@@H](C(=O)N1CCC[C@H]1c1ncc(-c2ccc(-c3ccc(-c4cnc([C@@H]5CCCN5C(=O)[C@H](NC(=O)OC)c5ccccc5)[nH]4)cn3)cc2)[nH]1)c1ccccc1` [Example 134, methyl ((1R)-2-((2S)-2-(5-(6-(4-(2-((2S)-1-((2R)-2-((methoxycarbonyl)amino)-2-phenylacetyl)-2-pyrrolidinyl)-1H-imidazol-5-yl)phenyl)-3-pyridinyl)-1H-imidazol-2-yl)-1-pyrrolidinyl)-2-oxo-1-phenylethyl)carbamate], the EC50 was 0.01 to 0.999 nM.

`CN(C)[C@@H](C(=O)N1CCC[C@H]1c1ncc(-c2ccc(-c3ccc(-c4cnc([C@@H]5CCCN5C(=O)[C@@H](c5ccccc5)N(C)C)[nH]4)nc3)cc2)[nH]1)c1ccccc1` [Example 146, (1R)-2-((2S)-2-(5-(5-(4-(2-((2S)-1-((2R)-2-(dimethylamino)-2-phenylacetyl)-2-pyrrolidinyl)-1H-imidazol-5-yl)phenyl)-2-pyridinyl)-1H-imidazol-2-yl)-1-pyrrolidinyl)-N,N-dimethyl-2-oxo-1-phenylethanamine] gave an EC50 of 0.01 to 0.999 nM.

With `CCN(CC)[C@H](C)C(=O)N1CCC[C@H]1c1ncc(-c2cnc(-c3ccc(-c4[nH]c([C@@H]5CCCN5C(=O)[C@H](C)N(CC)CC)nc4C(F)(F)F)cc3)nc2)[nH]1` [Example J51, (2R)-1-((2S)-2-(5-(4-(5-(2-((2S)-1-((2R)-2-(diethyl-amino)prop-anoyl)-2-pyrrolidinyl)-1H-imidazol-5-yl)-2-pyrimi-dinyl)phenyl)-4-(trifluoromethyl)-1H-imida-zol-2-yl)-1-pyrrolidinyl)-N,N-dieth-yl-1-oxo-2-propanamine] the EC50 was 1 to 99 nM.

With `COC(=O)N[C@@H](C(=O)N(C)[C@@H](C)c1ncc(-c2ccc(-c3ccc(-c4cnc([C@@H]5CCCN5C(=O)[C@@H](c5ccccc5)N(C)C)[nH]4)cc3)cc2)[nH]1)c1ccccc1` [Example 131.1-1, methyl((1R)-2-(((1S)-1-(5-(4′-(2-((2S)-1-((2R)-2-(dimethylamino)-2-phenylacetyl)-2-pyrrolidinyl)-1H-imidazol-5-yl)-4-biphenylyl)-1H-imidazol-2-yl)ethyl)(methyl)amino)-2-oxo-1-phenylethyl)carbamate] the EC50 was 0.01 to 0.999 nM.

`COC(=O)N[C@H](C(=O)N1CCC[C@H]1c1ncc(-c2ccc(-c3ccc(-c4cnc([C@@H]5CCCN5C(=O)[C@@H](NC(=O)OC)C(C)C)[nH]4)cc3CO)cc2)[nH]1)C(C)C` [Example M119, methyl((1S)-1-(((2S)-2-(5-(2-(hydroxymethyl)-4′-(2-((2S)-1-((2S)-2-((methoxycarbonyl)amino)-3-methylbutanoyl)-2-pyrrolidinyl)-1H-imidazol-5-yl)-4-biphenylyl)-1H-imidazol-2-yl)-1-pyrrolidinyl)carbonyl)-2-methylpropyl)carbamate] was tested, and the EC50 was 100 to 999 nM.

With `C[C@H](NC(=O)[C@@H](c1ccccc1)N(C)C)c1ncc(-c2cnc(-c3ccc(-c4cnc([C@@H]5CCCN5C(=O)[C@@H](c5ccccc5)N(C)C)[nH]4)cc3)cn2)[nH]1` [Example 152j-18, (2R)-2-(dimethylamino)-N-((1S)-1-(5-(5-(4-(2-((2S)-1-((2R)-2-(dimethylamino)-2-phenylacetyl)-2-pyrrolidinyl)-1H-imidazol-5-yl)phenyl)-2-pyrazinyl)-1H-imidazol-2-yl)ethyl)-2-phenylacetamide] the EC50 was 0.01 to 0.999 nM.

`COC(=O)N[C@@H](C(=O)N1CCC[C@H]1c1ncc(-c2ccc(-c3ccc(-c4cnc([C@@H]5CCCN5C(=O)Cc5cccnc5)[nH]4)cc3C)cc2)[nH]1)c1ccccc1` [Example 127, methyl ((1R)-2-((2S)-2-(5-(2′-methyl-4′-(2-((2S)-1-(3-pyridinylacetyl)-2-pyrrolidinyl)-1H-imidazol-5-yl)-4-biphenylyl)-1H-imidazol-2-yl)-1-pyrrolidinyl)-2-oxo-1-phenylethyl)carbamate] was tested, and the EC50 was 0.01 to 0.999 nM.
